Test results reported in US8759535B2, “Substituted fused imidazole derivatives, pharmaceutical compositions, and methods of use thereof” (High Point Pharmaceuticals, LLC, priority 2010, dated 2014).
Counter-ions that a name gives are not always drawn.

system: HMOX1; test: HMOX1 Protein Assay (immunostaining of HO-1 in NHLF cells, GE InCell 1000); format: cell-based; conditions: Homo sapiens, fold change above DMSO treated cells, 3 μM compound (asterisk), 16 h
In short: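 NHLF cells seeded overnight in FGM-2, then exposed to compound or DMSO vehicle for 16 h, fixed, and immunostained for HO-1 with Hoechst nuclear counterstain; imaged on InCell 1000. Values are fold change over DMSO-treated cells, generally at 5 μM (0.8% DMSO), with asterisked entries at 3 μM.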

Compared with `CNC(=O)CNC(=O)c1ccc2c(c1)nc(Nc1nc3ccc(C(F)(F)F)cc3s1)n2C` [Example 381, 1-Methyl-2-(6-trifluoromethyl-benzothiazol-2-ylamino)-1H-benzoimidazole-5-carboxylic acid methylcarbamoylmethyl-amide], `CCOc1ccc2nc(Nc3nc4cc(C(=O)NCC(=O)N(C)C)ccc4n3C)sc2c1` [Example 364, 2-(6-Ethoxy-benzothiazol-2-ylamino)-1-methyl-1H-benzoimidazole-5-carboxylic acid dimethylcarbamoylmethyl-amide] is lower in fold induction at 3 µM: 28.2 for the first, 27.8 for the second.

Work on `Cn1c(Nc2nc3ccc(OC(F)(F)F)cc3s2)nc2cc(C(=O)NCCCN3CCOCC3)ccc21` [Example 358, 1-Methyl-2-(6-trifluoromethoxy-benzothiazol-2-ylamino)-1H-benzoimidazole-5-carboxylic acid (3-morpholin-4-yl-propyl)-amide] yielded a fold induction at 3 µM of 11.8.

same assay, conditions: Homo sapiens, fold change above DMSO treated cells, 5 μM compound, 16 h

Going from `Cn1c(Nc2nc3ccc(OC(F)(F)F)cc3s2)nc2cc(C(=O)NCCN3CCNC3=O)ccc21` [Example 330, 1-Methyl-2-(6-trifluoromethoxy-benzothiazol-2-ylamino)-1H-benzoimidazole-5-carboxylic acid [2-(2-oxo-imidazolidin-1-yl)-ethyl]-amide] to `Cn1c(Nc2nc3ccc(OC(F)(F)F)cc3s2)nc2cc(C(=O)NCCF)ccc21` [Example 9, 1-Methyl-2-(6-trifluoromethoxy-benzothiazol-2-ylamino)-1H-benzoimidazole-5-carboxylic acid (2-fluoro-ethyl)-amide], the fold induction at 5 µM falls from 37.7 to 11.2.

Compared with `CNC1CCN(C(=O)CNC(=O)c2ccc3c(c2)nc(Nc2nc4ccc(Cl)cc4s2)n3C)CC1` [Example 454, 2-(6-Chloro-benzothiazol-2-ylamino-1-methyl-1H-benzoimidazole-5-carboxylic acid [2-(4-methylamino-piperidin-1-yl)-2-oxo-ethyl]-amide hydrochloride], `Cn1c(Nc2nc3ccc(Cl)cc3s2)nc2cc(C(=O)NCC(=O)N3CCC(O)CC3)ccc21` [Example 436, 2-(6-Chloro-benzothiazol-2-ylamino)-1-methyl-1H-benzoimidazole-5-carboxylic acid [2-(4-hydroxy-piperidin-1-yl)-2-oxo-ethyl]-amide] is lower in fold induction at 5 µM: 62.2 for the first, 29.3 for the second.

First: CN(C)C(=O)CNC(=O)c1ccc2c(c1)nc(Nc1nc3ccc(C(F)(F)F)cc3s1)n2C [Example 134, 1-Methyl-2-(6-trifluoromethyl-benzothiazol-2-ylamino)-1H-benzimidazole-5-carboxylic acid dimethylcarbamoylmethyl-amide]
Second: Cc1ccc2nc(Nc3nc4cc(C(=O)O)ccc4n3C)sc2c1 [Example 120, 1-Methyl-2-(6-methyl-benzothiazol-2-ylamino)-1H-benzimidazole-5-carboxylic acid]
The fold induction at 5 µM of the first is higher: 54.5 for the first, 1.7 for the second.

First: CCN(CC)c1cc2c(cc1C(=O)NCCN1CCOCC1)nc(Nc1nc3ccc(OC(F)(F)F)cc3s1)n2C [Example 362, 6-Diethylamino-1-methyl-2-(6-trifluoromethoxy-benzothiazol-2-ylamino)-1H-benzoimidazole-5-carboxylic acid (2-morpholin-4-yl-ethyl)-amide]
Second: Cn1c(Nc2nc3ccc(OC(F)(F)F)cc3s2)nc2cc(C(=O)N3CCCC3)ccc21 [Example 7, [1-Methyl-2-(6-trifluoromethoxy-benzothiazol-2-ylamino)-1H-benzoimidazol-5-yl]-pyrrolidin-1-yl-methanone]
The fold induction at 5 µM of the first is higher: 13 for the first, 5.4 for the second.

`COCCn1c(Nc2nc3ccc(Cl)cc3s2)nc2cc(C(=O)NCC3CCN(C(=O)CN(C)C)CC3)ccc21` [Example 315, 2-(6-Chloro-benzothiazol-2-ylamino)-1-(2-methoxy-ethyl)-1H-benzoimidazole-5-carboxylic acid [1-(2-dimethylamino-acetyl)-piperidin-4-ylmethyl]-amide] was tested, and the fold induction at 5 µM was 75.7.
